This note sets out measurements from ChEMBL document CHEMBL3243996, “[1-Deaminopenicillamine,4-threonine]oxytocin, a potent inhibitor of oxytocin” (J Med Chem, 1978).

Activity calls are given as the source filed them. The calls are words filed in the database; no cut-off is given here. Starred links: 1 amine or outer side, 2 acyl side, 3 side chain; linkers in the order of their positions; H or OH if unused. Positions of bridges follow the written chain, without caps; N, C: chain ends. Residues, ends and D or L forms follow the SMILES beside them. X2 = O=C(CC1(S[*:2])CCCCC1)[*:1]; X1 = CC(C)(CC(=O)[*:1])S[*:2]

Assay [1] addresses T1, Oxytocin receptor (Rattus norvegicus, UniProt P70536).
T1 sequence (P70536 whole entry): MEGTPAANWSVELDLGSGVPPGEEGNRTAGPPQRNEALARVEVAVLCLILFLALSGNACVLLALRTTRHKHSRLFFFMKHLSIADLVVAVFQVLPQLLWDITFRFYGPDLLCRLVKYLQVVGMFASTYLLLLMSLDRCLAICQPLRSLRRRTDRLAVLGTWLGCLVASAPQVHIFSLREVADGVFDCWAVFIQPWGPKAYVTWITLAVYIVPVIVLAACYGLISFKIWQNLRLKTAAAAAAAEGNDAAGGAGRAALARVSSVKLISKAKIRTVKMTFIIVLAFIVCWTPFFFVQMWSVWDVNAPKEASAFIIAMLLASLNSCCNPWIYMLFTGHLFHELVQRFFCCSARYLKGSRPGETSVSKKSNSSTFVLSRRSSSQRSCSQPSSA
Nature of the assay: (§1) Antagonist activity at oxytocin receptor in rat uterus by Schild's method in absence of Mg2+. In kind it is tissue-based. As to conditions: read-out: pA2 (converted).

Assay [2] addresses T2, Oxytocin receptor (Rattus norvegicus) (UniProt P70536).
T2 sequence (whole entry): T1 sequence (P70536 whole entry)
The assay is described as §1. The class given is tissue-based.

Assay [3] concerns the target T1, Oxytocin receptor. Nature of the assay: (§2) Antagonist activity at oxytocin receptor in rat uterus by average effective molar concentration based analysis. As to conditions: read-out: pA2 (converted). In kind it is tissue-based.
For assay [4], the target named is T2, Oxytocin receptor (Rattus norvegicus). The assay is described as §2. The class given is tissue-based.
Assay [5] can be described thus: (§3) Antagonist activity at rat vasopressin receptor.
Assay [6] is filed under the species Rattus norvegicus. The assay is described as §3.
Assay [7] has as its target T2, Oxytocin receptor (Rattus norvegicus). Briefly: Agonist activity at oxytocin receptor in rat uterus. The class given is tissue-based.
The species named for assay [8] is Rattus norvegicus. Nature of the assay: Agonist activity at rat vasopressin receptor.

For orientation: pA2 means a measure of antagonist potency on a negative log scale. A high value points to higher antagonist potency. On to `CC[C@H](C)[C@@H]1NC(=O)[C@H](Cc2ccc(O)cc2)NC(=O)CC(C)(C)SSC[C@@H](C(=O)N2CCC[C@H]2C(=O)N[C@@H](CC(C)C)C(=O)NCC(N)=O)NC(=O)[C@H](CC(N)=O)NC(=O)[C@H](CCC(N)=O)NC1=O` (YIQNCPLG-NH2; linker N-5 via X1), for which the results for the Kb on Oxytocin receptor [1] and at Oxytocin receptor [3] were 72.4 nM and 115 nM, respectively. In addition, the results for the A2 in assay [2] and in assay [4] were 9.1 ×10⁻⁸ M and 11.6 ×10⁻⁸ M, respectively. The same compound came in with a pA2 in assay [5] of 6.27.
Consider `CC[C@H](C)[C@@H]1NC(=O)[C@H](Cc2ccc(O)cc2)NC(=O)CC(C)(C)SSC[C@@H](C(=O)N2CCC[C@H]2C(=O)N[C@@H](CC(C)C)C(=O)NCC(N)=O)NC(=O)[C@H](CC(N)=O)NC(=O)[C@H]([C@@H](C)O)NC1=O` (stereo in doubt; 1b) [listing 1 of 2 here], for which the Kb at Oxytocin receptor [1] is 25.7 nM.
Take `CC[C@H](C)[C@@H]1NC(=O)[C@H](Cc2ccc(O)cc2)NC(=O)CC2(CCCCC2)SSC[C@@H](C(=O)N2CCC[C@H]2C(=O)N[C@@H](CC(C)C)C(=O)NCC(N)=O)NC(=O)[C@H](CC(N)=O)NC(=O)[C@H](CCC(N)=O)NC1=O` (YIQNCPLG-NH2; linker N-5 via X2): the Kb on Oxytocin receptor [1] and on Oxytocin receptor [3] was 37.2 nM throughout. This compound came in with an A2 in assay [4] of 3.7 ×10⁻⁸ M. The outcome in the assay filed under Rattus norvegicus [6] was Active.
In the case of `CC[C@H](C)[C@@H]1NC(=O)[C@H](Cc2ccc(O)cc2)NC(=O)CC(C)(C)SSC[C@@H](C(=O)N2CCC[C@H]2C(=O)N[C@@H](CC(C)C)C(=O)NCC(N)=O)NC(=O)[C@H](CC(N)=O)NC(=O)[C@H]([C@@H](C)O)NC1=O` (stereo in doubt; 1a) [listing 1 of 2 here], the A2 in assay [2] amounted to 4 ×10⁻⁸ M. In addition, the result (in assay [7]; in the assay filed under Rattus norvegicus [8]) was inactive.
On to `CC[C@H](C)[C@@H]1NC(=O)[C@H](Cc2ccc(O)cc2)NC(=O)[C@@H](N)C(C)(C)SSC[C@@H](C(=O)N2CCC[C@H]2C(=O)N[C@@H](CC(C)C)C(=O)NCC(N)=O)NC(=O)[C@H](CC(N)=O)NC(=O)[C@H](CCC(N)=O)NC1=O`, for which, at Oxytocin receptor [3], the Kb was 138 nM.
As for `CC[C@H](C)[C@@H]1NC(=O)[C@H](Cc2ccc(O)cc2)NC(=O)CC(C)(C)SSC[C@@H](C(=O)N2CCC[C@H]2C(=O)N[C@@H](CC(C)C)C(=O)NCC(N)=O)NC(=O)[C@H](CC(N)=O)NC(=O)[C@H]([C@@H](C)O)NC1=O` (stereo in doubt; 1a) [listing 2 of 2 here], the Kb on Oxytocin receptor [1] was 34.7 nM. This compound also yielded a pA2 in assay [5] of 6.67.
On to `CC[C@H](C)[C@@H]1NC(=O)[C@H](Cc2ccc(O)cc2)NC(=O)CC(C)(C)SSC[C@@H](C(=O)N2CCC[C@H]2C(=O)N[C@@H](CC(C)C)C(=O)NCC(N)=O)NC(=O)[C@H](CC(N)=O)NC(=O)[C@H]([C@@H](C)O)NC1=O` (stereo in doubt; 1b) [listing 2 of 2 here], for which the A2 in assay [2] was found to be 4.3 ×10⁻⁸ M.
